The values that follow come from patent publication US5576323A, “Excitatory amino acid receptor antagonists” (Eli Lilly and Company, priority 1994, dated 1996).

The test system of this test is metabotropic glutamate receptors. Kind of test: displacement of 1S,3R-ACPD-sensitive [3H]glutamate binding to rat forebrain crude membranes. Particulars: 100 μM, mixture of enantiomers unless otherwise noted. Here is the method: The binding of [^3 H]glutamate was conducted with crude membranes of rat forebrain as described by Schoepp and True. Schoepp and True, Neuroscience Lett., 145, 100-104 (1992), True and Schoepp, Society for Neuroscience Abstracts, 19, 470 (1993) and Wright, McDonald and Schoepp, J. Neurochem. 63: 938-945, 1994.
As to `N[C@@H](CC(Oc1ccccc1)C(=O)O)C(=O)O` (some centres unmarked) [Compound 1, 4-Phenoxyglutamic Acid], the “Percent displacement of L-[3H]Glu” value was 88.0%.

Turning to `NC(CC(Sc1ccccc1)C(=O)O)C(=O)O` (centres unmarked) [Compound 2, 4-Benzenethioglutamic Acid], the “Percent displacement of L-[3H]Glu” value is 77.1%.

`Cc1ccc(OC(C[C@H](N)C(=O)O)C(=O)O)cc1` (some centres unmarked) [Compound 3, 4-(4-Methylphenoxy)glutamic Acid]: the “Percent displacement of L-[3H]Glu” value was 82.4%.

For the molecule `Cc1ccccc1OC(C[C@H](N)C(=O)O)C(=O)O` (some centres unmarked) [Compound 4, 4-(2-Methylphenoxy)glutamic acid], the “Percent displacement of L-[3H]Glu” value is on record as 66.5%.

With `COc1ccc(OC(C[C@H](N)C(=O)O)C(=O)O)cc1` (some centres unmarked) [Compound 5, 4-(4 Methoxyphenoxy)glutamic Acid], the “Percent displacement of L-[3H]Glu” value is recorded as 82.3%.

For `CC(C)c1ccc(OC(C[C@H](N)C(=O)O)C(=O)O)cc1` (some centres unmarked) [Compound 6, 4-(4-(Isopropyl)phenoxy)glutamic Acid], the “Percent displacement of L-[3H]Glu” value is 53.9%.

In the case of `N[C@@H](CC(Oc1ccc(C2CCCC2)cc1)C(=O)O)C(=O)O` (some centres unmarked) [Compound 7, 4-(4-Cyclopentylphenoxy)glutamic Acid], the “Percent displacement of L-[3H]Glu” value was 72.0%.

With `CC(C)(C)CC(C)(C)c1ccc(OC(C[C@H](N)C(=O)O)C(=O)O)cc1` (some centres unmarked) [Compound 8, 4-(4-(1,1,3,3-Tetramethylbutyl)phenoxy)glutamic Acid], the “Percent displacement of L-[3H]Glu” value is listed as 52.3%.

Take `CC(=O)c1ccc(OC(CC(N)C(=O)O)C(=O)O)cc1` (centres unmarked) [Compound 9]: the “Percent displacement of L-[3H]Glu” value is 85.8%.

`N[C@@H](CC(Oc1ccc(C(F)(F)F)cc1)C(=O)O)C(=O)O` (some centres unmarked) [Compound 10, 4-(4-Trifluoromethylphenoxy)glutamic Acid]: the “Percent displacement of L-[3H]Glu” value is recorded as 77.9%.

As to `N[C@@H](CC(Oc1ccc(-c2ccccc2)cc1)C(=O)O)C(=O)O` (some centres unmarked) [Compound 12, 4-(4-Phenylphenoxy)glutamic Acid], the “Percent displacement of L-[3H]Glu” value turned out to be 86.7%.

As for `N[C@@H](CC(Oc1cccc(-c2ccccc2)c1)C(=O)O)C(=O)O` (some centres unmarked) [Compound 13, 4-(3-Phenylphenoxy)glutamic Acid], the “Percent displacement of L-[3H]Glu” value was 81.6%.

`N[C@@H](CC(Oc1ccc(Cc2ccccc2)cc1)C(=O)O)C(=O)O` (some centres unmarked) [Compound 14, 4-(4-Benzylphenoxy)glutamic Acid]: the “Percent displacement of L-[3H]Glu” value is 93.8%.

For `N[C@@H](CC(Oc1ccccc1Cc1ccccc1)C(=O)O)C(=O)O` (some centres unmarked) [Compound 15, 4-(2-Benzylphenoxy)glutamic Acid], the “Percent displacement of L-[3H]Glu” value is given as 85.9%.

As for `N[C@@H](CC(Oc1ccc(CCCCCCc2ccccc2)cc1)C(=O)O)C(=O)O` (some centres unmarked) [Compound 16, 4-(4-(6-Phenylhexyl)phenoxy)glutamic Acid], the “Percent displacement of L-[3H]Glu” value is on record as 76.9%.

Regarding `N[C@@H](CC(Oc1ccc(CC=Cc2ccccc2)cc1)C(=O)O)C(=O)O` (some centres unmarked) [Compound 17, 4-(4-(3-Phenylprop-2-enyl)phenoxy)glutamic Acid], the “Percent displacement of L-[3H]Glu” value was 75.9%.

In the case of `N[C@@H](CC(Oc1ccc(C=Cc2ccc([N+](=O)[O-])cc2)cc1)C(=O)O)C(=O)O` (some centres unmarked) [Compound 18, 4-(4-(2-(4-Nitrophenyl)ethenyl)phenoxy)glutamic Acid], the “Percent displacement of L-[3H]Glu” value amounted to 92.1%.

For `N[C@@H](CC(Oc1ccc(Oc2ccccc2)cc1)C(=O)O)C(=O)O` (some centres unmarked) [Compound 19, 4-(4-Phenoxyphenoxy)glutamic Acid], the “Percent displacement of L-[3H]Glu” value came to 84.6%.

In the case of `N[C@@H](CC(Oc1ccc(OCc2ccccc2)cc1)C(=O)O)C(=O)O` (some centres unmarked) [Compound 20, 4-(4-Benzyloxyphenoxy)glutamic Acid], the “Percent displacement of L-[3H]Glu” value is 67.8%.

On to `N[C@@H](CC(Oc1ccc2ccccc2c1)C(=O)O)C(=O)O` (some centres unmarked) [Compound 21, 4-(2-Naphthyloxy)glutamic Acid], for which the “Percent displacement of L-[3H]Glu” value worked out at 95.9%.

As for `N[C@@H](CC(Oc1ccc2cc(Br)ccc2c1)C(=O)O)C(=O)O` (some centres unmarked) [Compound 22, 4-(6-Bromo-2-naphthyloxy)glutamic Acid], the “Percent displacement of L-[3H]Glu” value is 93.9%.

For `N[C@@H](CC(Oc1ccc2cc(Br)ccc2c1Br)C(=O)O)C(=O)O` (some centres unmarked) [Compound 23, 4-(1,6-Dibromo-2-naphthyloxy)glutamic Acid], the “Percent displacement of L-[3H]Glu” value was found to be 99.5%.

Take `NC(CC(Sc1ccc2ccccc2c1)C(=O)O)C(=O)O` (centres unmarked) [Compound 24, 4-(2-Naphthalenethio)glutamic Acid]: the “Percent displacement of L-[3H]Glu” value is 100.6%.

Consider `N[C@@H](CC(Oc1cccc2ccccc12)C(=O)O)C(=O)O` (some centres unmarked) [Compound 25, 4-(1-Naphthyloxy)glutamic Acid], for which the “Percent displacement of L-[3H]Glu” value is reported as 98.5%.

Regarding `N[C@@H](CC(Oc1cccc2c1CCCC2)C(=O)O)C(=O)O` (some centres unmarked) [Compound 26, 4-(5,6,7,8-Tetrahydro-1-naphthyloxy)glutamic Acid], the “Percent displacement of L-[3H]Glu” value worked out at 82.1%.

Take `CC1(C)CCC(C)(C)c2cc(OC(C[C@H](N)C(=O)O)C(=O)O)ccc21` (some centres unmarked) [Compound 27, 4-(6,7-Dihydro-5,5,8,8-tetramethyl-2-naphthyloxy)glutamic Acid]: the “Percent displacement of L-[3H]Glu” value was 66.5%.

For `N[C@@H](CC(Oc1ccc2c(c1)CCC2)C(=O)O)C(=O)O` (some centres unmarked) [Compound 28, 4-(5-Indanyloxy)glutamic Acid], the “Percent displacement of L-[3H]Glu” value is 97.8%.

With `N[C@@H](CC(Oc1ccc2c(c1)OCO2)C(=O)O)C(=O)O` (some centres unmarked) [Compound 29, 4-(3,4-Methylenedioxyphenoxy)glutamic Acid], the “Percent displacement of L-[3H]Glu” value stood at 89.0%.

Regarding `N[C@@H](CC(Oc1ccc2c(c1)Cc1ccccc1-2)C(=O)O)C(=O)O` (some centres unmarked) [Compound 30, 4-(2-Fluorenoxy)glutamic Acid], the “Percent displacement of L-[3H]Glu” value stood at 93.7%.

`N[C@@H](CC(Oc1ccc2oc3ccccc3c2c1)C(=O)O)C(=O)O` (some centres unmarked) [Compound 31, 4-(2-Dibenzofuranoxy)glutamic Acid]: the “Percent displacement of L-[3H]Glu” value came to 99.4%.

With `NC(CC(Oc1ccc2oc3c(c2c1)CCCC3)C(=O)O)C(=O)O` (centres unmarked) [Compound 32, 4-(5,6,7,8-Tetrahydro-2-dibenzofuranoxy)glutamic Acid], the “Percent displacement of L-[3H]Glu” value worked out at 92.6%.

`Cc1cc2cc(OC(C[C@H](N)C(=O)O)C(=O)O)ccc2o1` (some centres unmarked) [Compound 33, 4-(2-Methyl-5-benzofuranyloxy)glutamic Acid]: the “Percent displacement of L-[3H]Glu” value is 90.1%.

For the molecule `N[C@@H](CC(Oc1ccc2sccc2c1)C(=O)O)C(=O)O` (some centres unmarked) [Compound 34, 4-(5-Benzothiophenyloxy)glutamic Acid], the “Percent displacement of L-[3H]Glu” value was found to be 95.3%.

Consider `NC(CC(Oc1ccc(C(c2ccc(Cl)cc2)c2ccccn2)cc1)C(=O)O)C(=O)O` (centres unmarked) [Compound 35], for which the “Percent displacement of L-[3H]Glu” value was 92.4%.

Consider `NC(CC(Sc1nncn1Cc1ccccc1)C(=O)O)C(=O)O` (centres unmarked) [Compound 36, 4-(4-Benzyl-1,2,4-triazole-3-thio)glutamic Acid], for which the “Percent displacement of L-[3H]Glu” value was 81.3%.

Turning to `N[C@@H](CC(Sc1n[nH]c(C=Cc2ccccc2Cl)n1)C(=O)O)C(=O)O` (some centres unmarked) [Compound 38, 4-(5-((2-Chlorophenyl)ethenyl)-1,2,4-triazole-3-thio)glutamic Acid], the “Percent displacement of L-[3H]Glu” value is recorded as 89.9%.

On to `Cc1ccc(O[C@@H](C[C@H](N)C(=O)O)C(=O)O)cc1` [Compound 44, (2S,4S)-4-(4-Methylphenoxy)glutamic Acid], for which the “Percent displacement of L-[3H]Glu” value is reported as 103.2%.

As to `N[C@@H](C[C@H](Oc1ccc2ccccc2c1)C(=O)O)C(=O)O` [Compound 45, (2S,4S)-4-(2-Naphthyloxy)glutamic Acid], the “Percent displacement of L-[3H]Glu” value is 101.5%.

With `N[C@@H](C[C@H](Oc1ccc(-c2ccccc2)cc1)C(=O)O)C(=O)O` [Compound 46, (2S,4S)-4-(4-Phenylphenoxy)glutamic Acid], the “Percent displacement of L-[3H]Glu” value is recorded as 85.5%.

As for `N[C@@H](C[C@H](Oc1ccc2oc3ccccc3c2c1)C(=O)O)C(=O)O` [Compound 47, (2S,4S)-4-(2-Dibenzofuranoxy)glutamic Acid], the “Percent displacement of L-[3H]Glu” value is 107.1%.

`NC(CC(Oc1ccc(/C=C/c2ccccc2)cc1)C(=O)O)C(=O)O` (centres unmarked) [Compound 48, 4-(4-(4-phenylethenyl)phenoxy)glutamic acid]: the “Percent displacement of L-[3H]Glu” value was found to be 91.9%.

Take `N[C@@H](CC(Oc1ccc(CCc2ccccc2)cc1)C(=O)O)C(=O)O` (some centres unmarked) [Compound 49, 4-(4-(2-phenylethyl)phenoxy)glutamic acid]: the “Percent displacement of L-[3H]Glu” value stood at 81.5%.

Regarding `NC(CC(Oc1ccc(CCCc2ccccc2)cc1)C(=O)O)C(=O)O` (centres unmarked) [Compound 50], the “Percent displacement of L-[3H]Glu” value is reported as 75.9%.

As for `N[C@@H](CC(Oc1ccc(CCCCc2ccccc2)cc1)C(=O)O)C(=O)O` (some centres unmarked) [Compound 51, 4-(4-(4-phenylbutyl)phenoxy)glutamic acid], the “Percent displacement of L-[3H]Glu” value was determined as 81.0%.
